Calls of active or inactive are those of the source.
Experiments:
[1] = molecular target: T1, Cytochrome P450 3A4 (Homo sapiens, UniProt P08684); settings: Potency;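 further: confirmatory qHTS run detecting inhibitors and substrates of CYP3A4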
[2] = molecular target: T1, Cytochrome P450 3A4; settings: read-out: Potency
[3] = growth suppression of PTEN-null colon cells, dose response, cell-based, HCT116 PTEN knockout (AID 1047); type: functional;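 further: HCT116 colon tumor cells with PTEN knocked out; cells exposed to compound for 60 hours before readout; potency for loss of cell viability measured by luminescence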
[4] = HIV-1 Env-mediated cell fusion inhibitors, dose response, CCR5-tropic Env (AID 2279); type: functional
[5] = Luminescence Cell-Based Dose Retest to Confirm Inhibitors of Cancer Stem Cells. [Related pubchem assays (depositor defined):AID2717, AID2721]; type: functional; settings: Homo sapiens
[6] = growth suppression of beta-catenin-knockout colon cells, dose response, cell-based, HCT116, human colon tumor (AID 1045); type: functional;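 further: HCT116 colon tumor cells with beta catenin knocked out; cells exposed to compound for 60 hours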
[7] = tested on: HEK293; experiment: cells; type: functional, cell-based; settings: Homo sapiens
[8] = tested on: HEK293; experiment: cells; type: functional, cell-based; settings: Homo sapiens; remark: listed apart in the source
[9] = tested on: HEK293; experiment: NOD1 signaling inhibitors, primary screen, cell-based, luminescence, uHTS (AID 1578); type: functional; settings: Homo sapiens
[10] = molecular target: Serine/threonine-protein phosphatase (Homo sapiens, UniProt Q9BPW0); experiment: Counterscreen for inhibitors of PP1: fluorescence-based biochemical high throughput dose response assay to identify inhibitors of Protein Phosphatase 5 (PP5). [Related pubchem assays: 2034 (Summary (PP5 inhibitors)), 1987 (PP5 inhibitors in singlate), 2235 (PP1 inhibitors in singlate)]
[11] = molecular target: Serine/threonine-protein phosphatase PP1-alpha catalytic subunit (Homo sapiens, UniProt P62136); experiment: PP1 phosphatase inhibitors, dose response, biochemical, fluorescence (AID 2403);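 further: phosphatase turnover of OMFP into fluorescent 3-O-methylfluorescein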
Sequence of Serine/threonine-protein phosphatase PP1-alpha catalytic subunit (P62136 whole entry): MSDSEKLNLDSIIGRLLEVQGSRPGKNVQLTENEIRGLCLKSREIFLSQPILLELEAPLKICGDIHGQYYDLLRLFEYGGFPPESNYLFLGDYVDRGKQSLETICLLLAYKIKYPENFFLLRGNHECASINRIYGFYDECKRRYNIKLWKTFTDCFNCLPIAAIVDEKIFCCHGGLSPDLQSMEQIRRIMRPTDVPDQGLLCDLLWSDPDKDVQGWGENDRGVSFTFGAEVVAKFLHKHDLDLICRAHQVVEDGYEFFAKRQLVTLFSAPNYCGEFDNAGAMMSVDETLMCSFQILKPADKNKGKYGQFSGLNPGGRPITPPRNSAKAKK

[12] = tested on: HEK293; experiment: NOD2 signaling inhibitors in MDP-stimulated cells, cell-based, uHTS, luminescence (AID 2001); type: functional; settings: Homo sapiens
[13] = molecular target: Peroxisome proliferator-activated receptor gamma/Nuclear receptor corepressor 2 (Homo sapiens, UniProt P37231+Q9Y618); type: functional
[14] = molecular target: Photoreceptor-specific nuclear receptor (Homo sapiens, UniProt Q9Y5X4); type: functional;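 further: potency for compounds that break the NR2E3 corepressor complex and count as activators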
Sequence of Photoreceptor-specific nuclear receptor (Q9Y5X4 whole entry): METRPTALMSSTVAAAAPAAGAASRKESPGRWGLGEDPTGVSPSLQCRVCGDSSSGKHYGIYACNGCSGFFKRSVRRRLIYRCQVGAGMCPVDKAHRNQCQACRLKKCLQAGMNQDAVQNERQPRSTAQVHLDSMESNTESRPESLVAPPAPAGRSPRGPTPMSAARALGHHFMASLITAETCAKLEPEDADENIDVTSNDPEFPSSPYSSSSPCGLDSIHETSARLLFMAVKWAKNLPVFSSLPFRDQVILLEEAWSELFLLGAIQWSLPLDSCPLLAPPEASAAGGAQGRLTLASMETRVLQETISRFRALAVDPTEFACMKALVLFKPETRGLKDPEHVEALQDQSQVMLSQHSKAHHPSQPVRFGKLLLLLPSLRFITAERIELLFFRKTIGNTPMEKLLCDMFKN

[15] = molecular target: Mothers against decapentaplegic homolog 3 (Homo sapiens, UniProt P84022); experiment: Smad3 binding inhibitors, lysate ELISA, dose response, cell lysate, secondary confirmation, chemiluminescent ELISA, HEK293 lysate (AID 1058); type: functional
[16] = tested on: Vero; experiment: Vero E6 cell cytotoxicity, SAR follow-up, cytotoxicity control for West Nile virus antiviral project, synthesized analogs (AID 2244); type: functional; settings: Chlorocebus sabaeus
[17] = molecular target: Voltage-gated N-type calcium channel alpha-1B subunit/Amyloid beta A4 precursor protein-binding family A member 1 (Homo sapiens, UniProt Q00975+Q02410); experiment: disruptors of Mint-PDZ/N-type channel peptide interaction – biochemical, HTRF, set 2, SAR follow-up (AID 434980); type: functional
[18] = molecular target: Melanin-concentrating hormone receptor 1 (Homo sapiens, UniProt Q99705); experiment: Late-stage fluorescence-based counterscreen for antagonists of the G-protein coupled receptor 7 (GPR7): cell-based dose response assay to identify antagonists of the melanin-concentrating hormone receptor 1 (MCHR1). [Related pubchem assays (depositor defined):AID1861, AID1880, AID1952, AID2148, AID2251, AID2257, AID485339]; type: functional;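 further: stimulated with 30 nM MCH peptide agonist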
Sequence of Melanin-concentrating hormone receptor 1 (Q99705 whole entry): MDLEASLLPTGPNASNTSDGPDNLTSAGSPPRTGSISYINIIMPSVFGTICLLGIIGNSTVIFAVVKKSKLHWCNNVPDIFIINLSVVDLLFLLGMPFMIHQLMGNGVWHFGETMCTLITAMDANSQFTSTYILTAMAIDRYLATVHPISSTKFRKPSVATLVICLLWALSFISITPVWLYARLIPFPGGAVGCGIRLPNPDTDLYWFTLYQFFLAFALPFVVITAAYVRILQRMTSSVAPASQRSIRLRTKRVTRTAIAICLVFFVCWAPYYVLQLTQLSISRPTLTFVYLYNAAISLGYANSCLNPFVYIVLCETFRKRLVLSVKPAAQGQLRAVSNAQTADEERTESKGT

[19] = cells; type: functional, cell-based
[20] = inhibitors of intracellular T. cruzi replication, confirmation, NIH3T3 host cells, beta-gal luminescence (AID 2044); type: functional, cell-based;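 further: intracellular parasites grown in NIH/3T3 mouse fibroblasts as host cells; luminescent beta-galactosidase reporter signal from transgenic T. cruzi replicating inside host cells; inhibitors lower the luminescence signal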
[21] = inhibitors of SNCA 5'UTR-driven reporter translation, confirmation, H4 neuroglioma cells, luminescence (AID 1988); type: functional, cell-based
[22] = tested on: INS1; experiment: beta cell apoptosis inhibitors, cytokine rescue, dose response, luminescence, retest (AID 449756); type: functional, cell-based; settings: Rattus norvegicus;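 further: cell death triggered by IL-1 beta plus TNF-alpha plus IFN-gamma mixture; protective hits raise ATP signal compared with cytokine alone wells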
[23] = tested on: Streptococcus sp. 'group A'; experiment: growth inhibition of control SK(-) GAS strain, dose response, counter-screen for streptokinase expression inhibitor project, luminescence, kanamycin, BacTiterGlo, confirmation (AID 1900); type: functional, organism-based
[24] = C. albicans growth with fluconazole, confirmation, fluorescence, retest (AID 2467); type: functional, cell-based
[25] = Luminescence Cell-Based Dose Response HTS to Identify Inhibitors of 5'UTR Stem-Loop Driven Prion Protein mRNA Translation in H4 Neuroglioblastoma Cells. [Related pubchem assays: 1827 (Project Summary), 1813 (Primary HTS)]; type: functional
[26] = molecular target: Nucleotide-binding oligomerization domain-containing protein 2 (Homo sapiens, UniProt Q9HC29); experiment: NOD2 signaling inhibitors, cell-based, luminescence, uHTS, HEK293 (AID 1566); type: functional
Sequence of Nucleotide-binding oligomerization domain-containing protein 2 (Q9HC29 whole entry, the tested form may be a part): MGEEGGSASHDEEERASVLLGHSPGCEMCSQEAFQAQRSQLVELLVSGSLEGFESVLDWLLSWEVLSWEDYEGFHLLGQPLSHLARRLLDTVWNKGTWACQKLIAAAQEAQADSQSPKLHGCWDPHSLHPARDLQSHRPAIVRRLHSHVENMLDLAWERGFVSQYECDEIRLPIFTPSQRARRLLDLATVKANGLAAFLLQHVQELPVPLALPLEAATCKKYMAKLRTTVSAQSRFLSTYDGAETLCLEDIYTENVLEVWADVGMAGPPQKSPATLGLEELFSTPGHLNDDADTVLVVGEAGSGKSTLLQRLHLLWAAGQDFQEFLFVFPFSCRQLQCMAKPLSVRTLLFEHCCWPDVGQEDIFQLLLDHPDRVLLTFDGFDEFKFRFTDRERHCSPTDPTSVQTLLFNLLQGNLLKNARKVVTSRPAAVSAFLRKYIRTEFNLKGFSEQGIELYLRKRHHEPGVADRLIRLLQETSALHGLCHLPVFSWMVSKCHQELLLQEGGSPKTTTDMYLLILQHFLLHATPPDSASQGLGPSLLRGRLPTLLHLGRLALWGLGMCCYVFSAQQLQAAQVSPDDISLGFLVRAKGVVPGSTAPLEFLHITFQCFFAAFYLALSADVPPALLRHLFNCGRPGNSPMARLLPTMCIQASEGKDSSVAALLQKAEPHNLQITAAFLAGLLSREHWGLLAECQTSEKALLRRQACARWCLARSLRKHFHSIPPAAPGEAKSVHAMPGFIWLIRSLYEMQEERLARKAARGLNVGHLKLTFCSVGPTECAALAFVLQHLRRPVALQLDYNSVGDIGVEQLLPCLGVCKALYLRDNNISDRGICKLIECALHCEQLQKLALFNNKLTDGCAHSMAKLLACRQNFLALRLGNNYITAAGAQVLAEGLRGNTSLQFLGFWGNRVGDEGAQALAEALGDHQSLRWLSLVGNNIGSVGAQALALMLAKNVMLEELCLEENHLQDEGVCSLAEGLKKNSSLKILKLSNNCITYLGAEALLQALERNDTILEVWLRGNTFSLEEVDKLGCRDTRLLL

[27] = NIH-3T3 fibroblast cytotoxicity, dose response, cytotoxicity control, cell-based, fluorescence, Alamar Blue, secondary assay (AID 2327); type: functional;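 further: NIH-3T3 mouse fibroblasts cultured with fluconazole at 8 µg/mL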
[28] = molecular target: ATP-dependent molecular chaperone HSP82 (Candida albicans (strain WO-1) (Yeast), UniProt C4YTQ8); experiment: loss of DOC-induced GRE-beta-galactosidase reporter signal, dose response, Hsp90 inhibitor project, S. cerevisiae, luminescence (AID 2400); type: functional, cell-based;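 further: beta-galactosidase luminescence from glucocorticoid response element reporter as proxy for Hsp90 function; inhibitor potency where signal loss means Hsp90 inhibition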
[29] = inhibitors of SNCA 5'UTR-driven translation, confirmation, luminescence, H4 neuroglioblastoma cells, dose confirmation (AID 2454); type: functional, cell-based;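 further: H4 neuroglioblastoma cells carrying an alpha-synuclein 5'UTR luciferase reporter; potency for inhibition of the luciferase signal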
[30] = molecular target: T2, Serine/threonine-protein phosphatase (Candida dubliniensis (strain CD36 / CBS 7987 / NCPF 3949 / NRRLY-17841) (Yeast), UniProt B9W6M3); experiment: calcineurin pathway inhibitors in yeast reporter, dose response, S. cerevisiae, CDRE-lacZ, luminescence, secondary (AID 2388); type: functional, cell-based;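 further: yeast reporter cells carrying a calcineurin-responsive lacZ construct stimulated with calcium chloride; luminescent beta-galactosidase reporter signal in whole cells rather than isolated phosphatase activity; potency for inhibition where a drop in reporter signal means calcineurin blockade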
T2 sequence (B9W6M3 whole entry): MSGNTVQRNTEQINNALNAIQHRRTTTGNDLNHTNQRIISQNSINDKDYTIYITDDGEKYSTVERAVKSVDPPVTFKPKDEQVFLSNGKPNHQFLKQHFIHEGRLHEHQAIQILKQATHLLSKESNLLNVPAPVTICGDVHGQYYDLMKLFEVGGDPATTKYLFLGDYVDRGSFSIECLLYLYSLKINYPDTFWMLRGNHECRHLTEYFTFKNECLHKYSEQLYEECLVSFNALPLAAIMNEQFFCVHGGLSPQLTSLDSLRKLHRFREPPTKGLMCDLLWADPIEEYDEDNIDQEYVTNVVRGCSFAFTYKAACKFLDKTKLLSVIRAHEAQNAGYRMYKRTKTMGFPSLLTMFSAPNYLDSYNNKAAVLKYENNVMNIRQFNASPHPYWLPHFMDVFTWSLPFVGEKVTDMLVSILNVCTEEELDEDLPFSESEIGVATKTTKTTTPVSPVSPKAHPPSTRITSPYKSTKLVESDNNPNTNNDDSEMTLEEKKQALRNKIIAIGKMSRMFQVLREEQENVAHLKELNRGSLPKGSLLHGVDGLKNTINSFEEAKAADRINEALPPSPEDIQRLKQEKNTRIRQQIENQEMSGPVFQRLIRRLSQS

[31] = cytotoxicity toward NIH3T3 fibroblasts, dose response, counter-screen, cell-based, ATP luminescence, mouse fibroblasts (AID 2010); type: functional;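 further: cells exposed to compound for about 90 hours before reading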
[32] = tested on: HEK293; experiment: cells; type: functional, cell-based; settings: Homo sapiens; remark: listed apart in the source
[33] = tested on: Streptococcus; experiment: Group A Streptococcus viability loss, dose response, counter-screen for streptokinase expression inhibitor project, luminescence, BacTiterGlo (AID 1915); type: functional, organism-based;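 further: potency for reduction of bacterial viability or growth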
[34] = luciferase reporter signal reduction – luminescence, H4-C neuroglioblastoma cells, dose response (AID 2458); type: functional, cell-based;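 further: H4 neuroglioblastoma cells stably carrying a luciferase reporter gene fusion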
[35] = molecular target: T3, Heat shock 70 kDa protein 1A (Homo sapiens, UniProt P0DMV8); experiment: Hsp70 inhibitors, probe displacement, primary screen, biochemical, fluorescence polarization (AID 583)
T3 sequence (P0DMV8 whole entry): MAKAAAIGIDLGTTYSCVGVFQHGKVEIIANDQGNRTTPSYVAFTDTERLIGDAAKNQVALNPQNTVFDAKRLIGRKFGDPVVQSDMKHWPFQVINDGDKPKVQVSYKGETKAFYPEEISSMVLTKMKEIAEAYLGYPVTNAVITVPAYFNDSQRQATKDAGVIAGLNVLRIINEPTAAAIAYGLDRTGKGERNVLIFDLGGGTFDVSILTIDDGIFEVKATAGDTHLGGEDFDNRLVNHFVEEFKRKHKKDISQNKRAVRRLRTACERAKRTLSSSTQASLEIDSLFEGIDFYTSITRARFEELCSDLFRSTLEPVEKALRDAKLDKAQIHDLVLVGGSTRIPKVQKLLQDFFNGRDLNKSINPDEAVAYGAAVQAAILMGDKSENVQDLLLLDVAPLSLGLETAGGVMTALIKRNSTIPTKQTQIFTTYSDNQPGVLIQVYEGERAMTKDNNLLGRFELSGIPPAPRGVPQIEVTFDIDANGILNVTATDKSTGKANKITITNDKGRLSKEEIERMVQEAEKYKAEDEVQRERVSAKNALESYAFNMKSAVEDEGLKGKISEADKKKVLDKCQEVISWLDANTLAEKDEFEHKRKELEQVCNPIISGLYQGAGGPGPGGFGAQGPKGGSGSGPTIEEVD

[36] = molecular target: T4, Dual specificity protein phosphatase 6 (Rattus norvegicus, UniProt Q64346); experiment: MKP-3 phosphatase inhibitors, primary screen, biochemical, rat enzyme, in vitro (AID 425)
T4 sequence (Q64346 whole entry): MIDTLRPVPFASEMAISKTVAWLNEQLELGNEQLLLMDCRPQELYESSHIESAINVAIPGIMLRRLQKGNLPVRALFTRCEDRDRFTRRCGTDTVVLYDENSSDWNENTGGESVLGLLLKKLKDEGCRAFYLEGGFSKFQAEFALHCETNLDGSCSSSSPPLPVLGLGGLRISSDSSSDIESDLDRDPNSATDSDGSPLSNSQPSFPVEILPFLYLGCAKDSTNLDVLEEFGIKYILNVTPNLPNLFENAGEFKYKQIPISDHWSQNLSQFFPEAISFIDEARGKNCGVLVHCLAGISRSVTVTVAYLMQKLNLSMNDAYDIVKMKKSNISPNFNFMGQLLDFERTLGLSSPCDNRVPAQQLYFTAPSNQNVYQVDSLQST

[37] = molecular target: T3, Heat shock 70 kDa protein 1A; experiment: Hsp70 inhibitors, biochemical, TR-FRET (AID 786)
[38] = molecular target: T5, Bcl-2-like protein 10 (Homo sapiens, UniProt Q9HD36); experiment: displacers of TR3 peptide from Bcl-B, primary screen, selectivity assay for Bfl-1 inhibitor project, biochemical, fluorescence polarization, FITC-TR3 peptide (AID 748);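 further: fluorescence polarization from a fluorescein-labelled TR3 peptide binding purified Bcl-B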
T5 sequence (Q9HD36 whole entry): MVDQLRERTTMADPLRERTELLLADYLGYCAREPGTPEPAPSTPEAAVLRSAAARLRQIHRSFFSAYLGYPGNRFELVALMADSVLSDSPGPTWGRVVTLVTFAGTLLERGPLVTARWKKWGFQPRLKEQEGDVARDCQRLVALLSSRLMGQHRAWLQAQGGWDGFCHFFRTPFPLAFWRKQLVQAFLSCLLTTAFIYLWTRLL

[39] = molecular target: Beta-galactosidase (Escherichia coli, UniProt Q8VNN2); experiment: beta-galactosidase enzyme inhibitors and activators, dose response, artefact control for CCR6 antagonist project, biochemical, E. coli enzyme, set 3 (AID 504712); type: functional
Sequence of Beta-galactosidase (Q8VNN2 whole entry): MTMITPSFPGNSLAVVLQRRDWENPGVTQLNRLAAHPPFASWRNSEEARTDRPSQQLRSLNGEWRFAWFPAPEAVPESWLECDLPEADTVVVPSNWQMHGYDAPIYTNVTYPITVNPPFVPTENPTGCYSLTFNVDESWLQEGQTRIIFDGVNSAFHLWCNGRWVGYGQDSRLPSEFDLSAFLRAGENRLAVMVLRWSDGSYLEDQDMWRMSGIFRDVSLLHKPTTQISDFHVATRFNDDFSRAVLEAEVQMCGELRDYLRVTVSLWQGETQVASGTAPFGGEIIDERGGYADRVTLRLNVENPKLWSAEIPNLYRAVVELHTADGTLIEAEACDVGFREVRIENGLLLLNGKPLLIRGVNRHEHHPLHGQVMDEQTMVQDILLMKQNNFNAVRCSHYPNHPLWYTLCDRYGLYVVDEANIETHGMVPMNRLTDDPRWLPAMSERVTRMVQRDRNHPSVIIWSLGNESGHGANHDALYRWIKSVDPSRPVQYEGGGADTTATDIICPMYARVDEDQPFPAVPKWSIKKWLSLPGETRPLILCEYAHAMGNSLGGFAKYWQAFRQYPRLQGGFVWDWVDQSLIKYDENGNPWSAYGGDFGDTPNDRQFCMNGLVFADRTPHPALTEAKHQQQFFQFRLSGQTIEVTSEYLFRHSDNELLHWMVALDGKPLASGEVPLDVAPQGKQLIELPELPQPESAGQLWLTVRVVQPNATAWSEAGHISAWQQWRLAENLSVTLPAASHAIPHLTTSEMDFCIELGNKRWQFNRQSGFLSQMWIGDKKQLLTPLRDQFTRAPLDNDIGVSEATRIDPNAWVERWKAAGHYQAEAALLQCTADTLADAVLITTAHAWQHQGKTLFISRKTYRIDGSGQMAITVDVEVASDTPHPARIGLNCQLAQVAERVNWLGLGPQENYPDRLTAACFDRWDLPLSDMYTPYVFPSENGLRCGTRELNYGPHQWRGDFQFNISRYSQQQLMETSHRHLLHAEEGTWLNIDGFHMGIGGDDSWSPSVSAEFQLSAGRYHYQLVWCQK

[40] = molecular target: C-C chemokine receptor type 6 (Homo sapiens, UniProt P51684); experiment: CCR6 receptor antagonists, dose response, cell-based, luminescent beta-arrestin readout (AID 504728); type: functional
Sequence of C-C chemokine receptor type 6 (P51684 whole entry): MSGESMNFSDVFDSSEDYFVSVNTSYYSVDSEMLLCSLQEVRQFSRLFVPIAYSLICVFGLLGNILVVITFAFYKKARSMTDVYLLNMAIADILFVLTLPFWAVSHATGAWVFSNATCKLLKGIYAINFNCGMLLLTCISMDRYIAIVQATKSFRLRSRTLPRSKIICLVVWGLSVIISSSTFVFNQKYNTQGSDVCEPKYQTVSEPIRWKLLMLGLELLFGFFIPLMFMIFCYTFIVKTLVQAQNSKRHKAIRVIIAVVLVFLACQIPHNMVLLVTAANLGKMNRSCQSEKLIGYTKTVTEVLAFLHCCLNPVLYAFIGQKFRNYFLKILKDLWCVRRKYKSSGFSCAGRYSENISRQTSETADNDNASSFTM

T1 sequence (P08684 whole entry): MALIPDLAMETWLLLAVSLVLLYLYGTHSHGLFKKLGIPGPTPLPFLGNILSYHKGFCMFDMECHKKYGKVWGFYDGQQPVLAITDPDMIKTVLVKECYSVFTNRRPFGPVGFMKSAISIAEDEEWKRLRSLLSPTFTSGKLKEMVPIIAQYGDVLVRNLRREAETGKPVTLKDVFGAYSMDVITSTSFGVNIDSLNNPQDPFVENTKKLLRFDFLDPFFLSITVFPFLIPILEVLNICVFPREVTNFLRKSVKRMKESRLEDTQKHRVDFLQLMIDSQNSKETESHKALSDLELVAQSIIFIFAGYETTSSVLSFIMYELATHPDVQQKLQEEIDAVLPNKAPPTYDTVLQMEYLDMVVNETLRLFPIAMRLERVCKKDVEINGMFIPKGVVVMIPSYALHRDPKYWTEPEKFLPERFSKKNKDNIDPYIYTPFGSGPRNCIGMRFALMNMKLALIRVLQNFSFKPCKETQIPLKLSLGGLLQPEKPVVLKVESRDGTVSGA

With `COC(=O)C1=C(C)N(Cc2ccccc2)C2=C(C(C)=O)C[C@@](O)(C(=O)OC)C(=O)N2C1c1ccccc1` (some centres undefined) the AC50 [1] was 3.16 µM (inconclusive) and the AC50 [2] was 3.16 µM (inconclusive).
With `O=C(O)CCn1cc(/C=C/C(=O)c2ccc(Cl)cc2)c(-c2ccc(Br)cc2)n1` the EC50 [3] was 15.9 µM (active), the IC50 [4] was 22.7 µM (active) and the AC50 [5] was 5.62 µM (active). The EC50 [6] was 15.5 µM (active).
With `CCOC(=O)c1sc(N2C(=O)C(O)=C(C(=O)c3ccco3)C2c2cccc([N+](=O)[O-])c2)nc1C` (centres undefined) the IC50 [7] was > 20 µM (inactive), the IC50 [8] was > 20 µM (inactive) and the EC50 [9] was > 20 µM (inactive). The IC50 [10] was > 67 µM (not active), the IC50 [11] was 11.8 µM (not active) and the IC50 [12] was > 20 µM (inactive).
With `COc1ccc(-n2c(=S)[nH]c3c(oc4ccccc43)c2=O)cc1` the IC50 [13] was 4.93 µM (active) and the IC50 [14] was 2.32 µM (active).
For `COc1ccc(C(c2cc3c(cc2O)OCO3)N2CCCCC2)cc1` (centres undefined), the IC50 [15] was < 2.5 µM (not active).
With `O=C(Nc1nc(-c2ccc(Cl)cc2)cs1)c1ccccc1F` the CC50 [16] was > 40 µM (active).
For `O=C(NCCc1ccc(Cl)cc1)c1cc(-c2ccco2)nc2ccccc12`, the IC50 [17] was 31.1 µM (active).
For `COc1ccc(Oc2c(Cl)cnn(-c3cccc4ccccc34)c2=O)cc1`, the IC50 [18] was 8.4 µM (active).
In the case of `Oc1c(Br)cc(Br)cc1/C=N/Nc1ccc(Cl)nn1`, the EC50 [19] was 0.502 µM (active), the IC50 [7] was > 20 µM (inactive) and the IC50 [8] was > 20 µM (inactive). The EC50 [20] was 0.495 µM (active), the EC50 [21] was < 0.1 µM (active) and the AC50 [22] was 0.22 µM (active). The EC50 [23] was 0.249 µM (active), the EC50 [24] was < 0.03 µM (active) and the EC50 [25] was 0.287 µM (active). The EC50 [26] was > 20 µM (inactive), the EC50 [27] was 45.2 µM (active) and the EC50 [28] was 24.3 µM (active). For the same compound, the EC50 [29] was > 12 µM (inconclusive), the EC50 [9] was > 20 µM (inactive) and the EC50 [30] was > 180 µM (inactive). For the same compound, the EC50 [31] was > 30 µM (not active), the IC50 [32] was > 20 µM (inactive) and the EC50 [33] was 0.899 µM (active). The IC50 [12] was > 20 µM (inactive) and the EC50 [34] was 0.931 µM (active).
With `Cc1ccc(C)n1-c1cccc(C(=O)O)c1` the IC50 [35] was 48.3 µM (active), the IC50 [36] was > 10 µM (not active) and the IC50 [37] was 18.5 µM (active). The IC50 [38] was 1.13 µM (active).
With `C(=C\c1sc(Nc2ccccc2)n[n+]1-c1ccccc1)/c1ccccc1` the IC50 [39] was > 66.6 µM (inactive) and the IC50 [40] was 48.8 µM (inactive).

— ChEMBL document CHEMBL1201862, “PubChem BioAssay data set” (2004)
